Our source for the melting point values is a melting point compilation (Tetko et al.; mined from patent text by program, amines drawn as free bases though some values may be those of a salt).

Residues, ends and D or L forms follow the SMILES beside them. *: point of attachment. Boc = CC(C)(C)OC(=O)*

The melting point is the temperature, or range, at which the solid turns liquid.

As for `O=c1nc(-c2ccc3c(n2)CCCC3)sc2ccccc12`, the melting point was in the range of 232 to 233 °C.
Next, `CSc1nc(C)nc(N)n1`: 161 to 163 °C.
For `Cn1cc2c(C3CC3C#N)c(Br)ccc2n1` (stereo unspecified) the value was 154 to 156 °C; for `N#Cc1ccc(C=O)c(-c2ccco2)c1`, 125 °C; for `Cc1c(C)c2c(c(C)c1N)C(c1ccc(-c3ccccc3)cc1)CO2` (stereo unspecified), 149 to 150 °C.
For `CCONC(=O)c1cccc(-c2nc3ccccc3c(=O)o2)c1` the value was 179 to 183 °C.
`C#CCCCCC12SCC(CCC)(CS1)CS2` showed a melting point of 88 °C.
Next, `O=C1c2ccccc2CN1[C@@H]1c2cc([N+](=O)[O-])ccc2OC(CF)(CF)[C@H]1O` (relative stereo): 285 to 288 °C; `CC1(C)CC(=O)C(C(=O)c2cccc3nnsc23)C(=O)C1`: 168 to 170 °C.
Next, `CCC(=O)c1sc(Oc2ccc3c(c2)OCO3)c2c1CCc1cnn(C)c1-2`: 99 to 100 °C; `CCCCCCOc1ccc(-c2nc(-c3ccc(OCCCCCC)cc3O)nc(-c3c(C)cc(C)cc3C)n2)c(O)c1`: 140 to 142 °C; `COC(=O)C(C)(C)Cc1ccc2oc(-c3ccc4ccc(Cl)cc4n3)cc2c1`: 137 to 138 °C.
For `COC1(C#Cc2ncn3c2CN(C)C(=O)c2c(Cl)cccc2-3)CCCC1` the value was 174 to 175 °C; for `O=C(NCCN1CCC(=C(c2ccc(F)cc2)c2ccc(F)cc2)CC1)C1CSC(c2cccnc2)N1` (stereo unspecified), 119 to 121 °C.
`NC(=O)c1ccc2[nH]c(=O)oc2c1` came in with a melting point of 296 °C.
For `O=S(c1ccc(/C=C/c2nc(COc3ccc(CCCCn4ccnn4)cc3)co2)cc1)C(F)(F)F` (stereo unspecified) the value was 122 to 123 °C; for `BrCc1cccc(OCc2ccccc2)c1`, 38 to 40 °C.
With `Cn1cc(-c2ccccc2)c(C(=O)NCCNC(=O)OC(C)(C)C)n1`, the melting point was 145 °C.
For `CC(=O)Nc1c([N+](=O)[O-])cc(Br)cc1[N+](=O)[O-]` the value was 238 to 239 °C; for `O=C(CSCCNC(=O)c1ccco1)NCCCOc1cccc(CN2CCCCC2)c1`, 60.5 to 61.5 °C.
`COc1cc2c(c(OC)c1OC)-c1ccc([N+](=O)[O-])cc1COC2`: the melting point was found to be 161 °C.
Regarding `O=[N+]([O-])c1ccc2c(c1)COCC2`, the melting point was 96 to 98 °C.
On to `O=[N+]([O-])c1ccc(OCC2CC2)c(C(F)(F)F)c1`, for which the melting point was in the range of 41 to 44 °C.
For `CNC(=O)/C=C1\CCc2c(Cl)cc(F)cc21` the value was 173 to 175 °C.
Turning to `O=C(O)CCCn1ccn(C2CCc3ccccc3C2)c1=S` (stereo unspecified), the melting point lay within 156 to 158 °C.
In the case of `CCOC(=O)c1ccc2c(Br)cccc2c1`, the melting point lay in the range of 52 to 54 °C.
For `Nc1ccc(-c2nc(-c3ccco3)no2)c(Cl)c1` the value was 175 to 176 °C.
For the molecule `CCOC(=O)/C(=C\Nc1cccc(OC)c1)c1ccc(OC)cc1`, the melting point was 60 to 61 °C.
Next, `Nc1cccc2c1CN(c1c(F)cc3c(=O)c(C(=O)O)cn(-c4ccc(F)cc4F)c3c1F)C2`: 264 to 266 °C; `Cc1cc2c(nc1N)C(=O)N(C(C)C1CC1)C2=O` (stereo unspecified): 219 to 220 °C.
For the molecule `NS(=O)(=O)c1ccccc1-c1ccc(Cn2c(-c3ccccc3)nc(Cl)c2C=O)cc1`, the melting point worked out at 215 °C.
For `O=C1CCNc2ccccc2N1c1ccccc1` the value was 170 to 171 °C; for `Cc1nnsc1NC(=O)Nc1ccc(-n2nc(C(F)(F)F)cc2C2CC2)cc1`, 124 to 128 °C; for `Clc1ccc(COc2ccc(Cl)cc2C(c2ccccc2)n2ccnc2)c(Cl)c1` (stereo unspecified), 132 to 134 °C.
For `CC(C)Cn1c(CN(C)C(N)=O)nc2c(N)nc3ccccc3c21` the value was 223 to 225 °C.
Molecule `O=C(O)C(=O)c1ccc(OCCOc2ccc3ccncc3c2)cc1` displayed a melting point of 260 °C.
For `CCCCCCCCCC(=O)COS(=O)(=O)c1ccc(Cl)cc1` the value was 51 to 51.5 °C; for `Cn1c(COc2ccc(CC3SC(=O)N(C(c4ccccc4)(c4ccccc4)c4ccccc4)C3=O)cc2)nc2ccc(Sc3ccccc3)nc21` (stereo unspecified), 90 to 95 °C.
For `CCCc1cc(F)c2oc(Cc3ccc(OC)cc3)c(C)c2c1OC(=O)OCC` the value was 85 to 88 °C.
For `COc1ccc(-c2cn3ccc(C)cc3n2)cc1` the value was 157 to 160 °C; for `CC(C)(N)Cc1c[nH]c2ccc(Br)cc12`, 150 to 155 °C; for `Cc1nc(NC(=O)c2cnn3c(C(F)(F)F)cc(-c4ccc(C(F)(F)F)c(OCC(F)(F)F)c4)nc23)sc1S(=O)(=O)NC(C)(C)CO`, 275 °C.
The molecule `CN(CCc1ccc(NC(=N)C(F)(F)F)cc1)Cc1ccccc1` showed a melting point of 105 to 107 °C.
As to `CCCCCOc1c(OC)ccc(C(=O)NCCc2ccc(OCc3ccccc3)cc2)c1CCO`, the melting point was 93.4 to 93.7 °C.
For `NC(=O)C1CCC(=O)N1CC#CCN1CCCCC1` (stereo unspecified) the value was 143 to 145 °C; for `c1ccc(COc2ccc(N3CCN(Cc4nc5ccccc5[nH]4)CC3)nc2)cc1`, 62 to 64 °C; for `COCc1nc(NC(=O)NS(=O)(=O)c2ccccc2C(=O)OC)nc(SC)n1`, 147 to 149 °C.
On to `CC1CC(n2cncc2C(=O)O)c2ccccc21` (stereo unspecified), for which the melting point was determined as 209 °C.
Next, `COc1cc(-c2ccc(S(C)(=O)=O)cc2)c(-c2ccc(F)cc2)c(C(F)(F)F)n1`: 166 to 168 °C.
The molecule `Cc1nn(C)c2c(O)nc(C(C)C)nc12` showed a melting point of 264 to 266 °C.
For the molecule `COCCNC(=O)c1cc(-c2ccccc2)c(=O)n2ccc3ccsc3c12`, the melting point fell in the range of 201 to 202 °C.
For `O=C(c1ccc(Cc2ccc(F)cc2)o1)c1oc(CO)cc(=O)c1OCc1ccccc1` the value was 104 to 106 °C; for `CC(C(=O)O)c1ccc(CC2CCCCC2=NO)cc1` (stereo unspecified), 143 to 150 °C.
Next, `Cc1cc(SCC(CS(=O)(=O)c2ccc(-c3ccc(Cl)cc3)cc2)C(=O)O)nc(C)n1` (stereo unspecified): 170 to 172 °C.
For `COC(=O)C1=C(OS(=O)(=O)c2ccc([N+](=O)[O-])cc2)C(=O)O[C@@H]1C` the value was 123 to 124 °C.
The molecule `O=c1c2cc(F)c(N3CCCC3)cc2n(CC2CC2)c(=O)n1O` had a melting point of 211 to 213 °C.
Consider `Fc1ccc2nc(S)sc2c1`, for which the melting point was in the range of 224 to 226 °C.
`N#Cc1cnn(C2CCCCC2)c1N`: the melting point fell in the range of 99 to 103 °C.
For `CC1(C)OC(C=Cc2ccc(F)cc2F)=CC1=O` the value was 98.5 to 100 °C; for `CNC(=O)[C@H](O)[C@@H](Sc1ccccc1N)c1ccc(OC)cc1`, 145 to 147 °C; for `CCCCCSc1ccc(-c2ncc(CCCCC)cn2)cc1`, 52.8 °C.
Next, `CC1Nc2ccccc2C(=O)N1CCN1CCC(c2noc3cc(F)ccc23)CC1` (stereo unspecified): 164 to 165 °C; `O=C(CNC(=O)c1ccc([N+](=O)[O-])cc1[N+](=O)[O-])OCc1ccccc1`: 116 to 118 °C; `NS(=O)(=O)c1cccc(C(=O)C(F)(F)F)c1`: 88.4 to 89.1 °C.
For `O=C1c2ccccc2C(=O)N1c1ccc(S(=O)(=O)NCCC2(C(=O)NCC(F)(F)F)c3ccccc3-c3ccccc32)cc1` the value was 235 to 237 °C.
On to `CC1Cc2c([nH]c3ccccc23)-c2nc3c(c(=O)n21)CCCC3` (stereo unspecified), for which the melting point is 232 °C.
Take `CCCCNc1ccc2nn(CCC)c(=O)n2n1`: the melting point lay in the range of 183 to 185 °C.
Next, `O=[N+]([O-])c1ccc(C23CCN(CC2)CC3)cc1`: 130 to 135 °C; `O=C(O)Cc1ccc2c(c1)Cc1ccccc1-2`: 184 to 186 °C.
Molecule `CS(=O)(=O)N1CCC(NC(=O)Nc2ccc(F)cc2)CC1` came in with a melting point of 186 to 188 °C.
In the case of `O=C(NC(=O)C(Br)CBr)Nc1ccc(Cl)c(Cl)c1` (stereo unspecified), the melting point is 174 to 175 °C.
In turn, `C=C(Cc1ccc(OC)cc1)C(=O)O` showed a melting point of 88 to 91 °C.
Next, `CS(=O)(=O)c1ccnc(Oc2ccccc2)n1`: 86 to 87 °C.
Next, `COc1cc(C(=O)O)cc2c(C)c(C)oc12`: 229 to 231 °C.
For `CN(C)c1ncccc1NC(=NC#N)NC1(c2ccccc2)CCC1` the value was 204 to 205 °C; for `Cc1ccccc1-n1c(=O)c(N2CCNCC2)nc2ccccc21`, 151 to 153 °C; for `CCOC(=O)c1nsc(-c2ccc(C)cc2)n1`, 65 to 66.5 °C.
For the molecule `CC(=O)SCCN(CCC1CCCCC1)C(=O)N[C@@H](C)C(=O)O`, the melting point was 89.5 to 90.5 °C.
For `O=C(c1ccccc1)c1cnn2c(-c3cccc(N4CCCC4=O)c3)ccnc12` the value was 173 to 174 °C.
For `CSc1ccc(-c2coc3ccc(-c4nnc(N)o4)cc23)cc1Cl` the value was 232 to 233 °C.
Next, `CC(=O)n1ccc2c(I)ncnc21`: 123 to 124 °C; `N#Cc1c(C(N)=O)c2n(c1C1CC1)CCN(C(=O)Nc1ccc(C(=O)O)cc1)C2`: 279 to 280 °C; `CN1C(=O)C(NC(=O)c2cc3cc(O)ccc3[nH]2)N=C(c2ccccc2)c2ccccc21` (stereo unspecified): 120 to 130 °C.
`O=C(NCc1ccccc1)c1ccnc(N2CCN(Cc3ccc(F)cc3)C2=O)c1`: the melting point was 99 to 101 °C.
For `COc1ccc2c(c1)CC(O)C2` (stereo unspecified) the value was 67 to 69 °C.
For `COC(=O)c1ccc(C(O)c2cc3cc(Cl)cnc3n2S(=O)(=O)c2ccc(C(C)C)cc2)cc1` (stereo unspecified) the value was 77 °C; for `Cc1nnc(-c2ccc3scc(-c4ccc(S(C)=O)cc4)c3c2)o1` (stereo unspecified), 166 to 167 °C; for `COc1ccc(OC)c(C(=S)N2CCOCC2)c1`, 127 °C.
Next, `CCOc1cc(C)c(CCc2ccc(OC)c(OC)c2)cc1OC`: 38.4 °C.
The molecule `CC(C)(C)OC(=O)NCC(=O)NCC(=O)NCC(=O)O` (Boc-Gly-Gly-Gly-OH) returned a melting point of 115 to 120 °C.
Next, `O=C1NC(=O)C(c2ccccc2Cl)C1c1cc2c3c(ccn3CCC2)c1` (stereo unspecified): 209 to 212 °C.
